We go through four molecules from patent publication US20080312309A1, “CONTROLLED RELEASE ORAL FORMULATIONS OF ION CHANNEL MODULATING COMPOUNDS AND RELATED METHODS FOR PREVENTING ARRHYTHMIA” (priority 2007, published 2008).

A short description of the data set: Disposition and mass balance of 14C-vernakalant hydrochloride after single IV and oral doses in CYP2D6 EMs and PMs. To be noted: for AUC0-∞ / Cmax / t1/2 / Tmax: plasma, single 240-mg dose. Format: in vivo, human. An excerpt: This phase 1 study used an open-label, single-sequence, crossover design. […] The specific activity of the administered dose was 0.329 μCi/mg, yielding a total radioactive dose of 78.96 μCi. Participants remained confined to the center for 7 days after drug administration to ensure collection of urine and fecal samples for recovery of radioactivity. After an additional 2-week follow-up as outpatients, the cohort returned to the center 3 weeks after each dose (i.e., days 21 and 42) for end-of-study assessments.
Additional samples were obtained 5 minutes into the IV infusion and at its end.
Urine and fecal specimens were also collected at the end-of-study assessment. Saliva for ^14C analysis was obtained before dosing, 0.25, 0.5, 2, and 8 hours afterward, and on occurrence of any treatment-related adverse event related to dysgeusia. Vomitus for ^14C analysis was collected at any time over the 7 days after oral administration when vomiting occurred.
Adverse events were evaluated daily, classified by intensity and association with treatment, and coded according to the MedDRA dictionary version 6.1. Vital signs, physical examination, 12-lead electrocardiograph (ECG), and laboratory tests including clinical chemistry, hematology, and urinalysis were evaluated at screening, 7 days after dosing, and at the end-of-study assessment. […] In addition, vital signs and 12-lead ECG were obtained 15 minutes before dosing; the vital signs assessment was repeated 15, 30, 60, and 90 minutes after dosing and then daily for 7 days.
Plasma samples first underwent solid-phase extraction on SPE cartridges containing a 30-mg MCX phase (Waters, Milford, Mass.); urine samples were analyzed directly. For the determination of glucuronide and sulphate conjugates, plasma and urine samples underwent an enzymatic deconjugation with a solution of β-glucuronidase (5000 units/mL in 0.1 M sodium acetate buffer pH 5.0) and were incubated for 30 hours (plasma) or 20 hours (urine) at 37° C. Subsequently, the urine samples were injected directly on to the column and the plasma samples were further treated with SPE as described above. […] The other part of the LC column effluent was directed to model API 3000 MS (MDX Sciex, Concord, Canada) with ionspray detection for structural confirmation and identification.
Pharmacokinetic values were analyzed using noncompartmental analysis by means of WinNonlin version 5.0 (Pharsight Corp, Mountain View, Calif.). […] Oral bioavailability (F) was determined from the ratio of AUC0-∞ after oral dosing to AUC0-∞ after IV dosing, and was used to calculate the oral clearance (CL/F), Vdz after oral dosing (Vdz/F), and Vss after oral dosing (Vss/F).
The amount of these analytes excreted in urine was calculated according to time period and cumulatively over the 7 days. Total ^14C in urine and feces (and vomitus, if applicable) was also determined by time and cumulatively over the study for the mass-balance estimation.
Concentrations below the lower limit of quantitation were set to 0. […] Safety parameters were summarized descriptively for the entire cohort.

Where [1] appears, read: IV infusion of 14C-vernakalant, EMs (n = 5).
Where [2] appears, read: IV infusion of 14C-vernakalant, PMs (n = 2).
The mark [3] stands for this setting: oral administration of 14C-vernakalant, EMs (n = 5).
Where [4] appears, read: oral administration of 14C-vernakalant, PMs (n = 2).
Where [5] appears, read: oral administration, EMs (n = 5).
Where [6] appears, read: oral administration, PMs (n = 2).
The mark [7] stands for this setting: IV infusion, EMs (n = 5), listed as Compound 2G.

Marks after values point to notes of the source that are not given here.

For the molecule `COc1cc(CCO[C@@H]2CCCC[C@H]2N2CC[C@@H](O)C2)ccc1O` [Compound 2], the “Cumulative Amount Excreted in Urine During the 7 Days After Administration” value (from here on “Cumulative Amount Excreted”) is reported as 3.11 ± 0.85 mg under setting [1], 0.48 ± 0.02 mg under setting [2], 3.88 ± 1.14 mg under setting [3] and 0.62 ± 0.19 mg under setting [4]. Also, the “AUC0-∞” value was 202.5 ± 66.6 ng·h/mL (IV infusion, EMs (n = 5)) and 225.2 ± 76.8 ng·h/mL under setting [5]. Moreover, the peak concentration (Cmax) (commonly the highest concentration seen after dosing) was 68.6 ± 18.0 ng/mL (IV infusion, EMs (n = 5)); 3.31 ± 4.67 ng/mL (IV infusion, PMs (n = 2)); 63.2 ± 21.9 ng/mL under setting [5]; 6.25 ± 8.84 ng/mL under setting [6]. Further, the t1/2 came to 2.28 ± 0.29 h (IV infusion, EMs (n = 5)) and 2.19 ± 0.29 h under setting [5].

As for `COc1ccc(CCO[C@@H]2CCCC[C@H]2N2CC[C@@H](O[C@@H]3O[C@H](C(=O)O)[C@@H](O)[C@H](O)[C@H]3O)C2)cc1OC` [Vernakalant glucuronide], the “Cumulative Amount Excreted” value is, setting by setting: under setting [1], 8.91 ± 2.86 mg; under setting [2], 44.22 ± 15.10 mg; under setting [3], 11.31 ± 6.48 mg; under setting [4], 50.20 ± 14.99 mg. Also, the “AUC0-∞, times higher in PMs than EMs” value (plasma metabolite) is reported as “approximately 4 times”. Further, the “AUC0-∞” value (IV infusion, EMs (n = 5)) is 1791 ± 764.1 ng·h/mL; the “AUC0-∞” value (IV infusion, PMs (n = 2)) came to 8074 ± 118.6 ng·h/mL; the “AUC0-∞” value under setting [5] came out at 2076 ± 809.3 ng·h/mL; the “AUC0-∞” value under setting [6] was found to be 7759 ± 1252 ng·h/mL. Also, the Cmax reads like this: (IV infusion, EMs (n = 5)) 455.6 ± 118.9 ng/mL; (IV infusion, PMs (n = 2)) 942.0 ± 213.5 ng/mL; under setting [5], 496.0 ± 158.5 ng/mL; under setting [6], 1078 ± 297.7 ng/mL. Further, the Tmax (in general, the time at which the peak concentration occurs) by setting is: (IV infusion, EMs (n = 5)) 0.48 ± 0.13 h; (IV infusion, PMs (n = 2)) 1.67 ± 0.71 h; under setting [5], 1.80 ± 0.45 h; under setting [6], 1.38 ± 0.88 h. For the same molecule, the t1/2 reads like this: (IV infusion, EMs (n = 5)) 2.76 ± 0.65 h; (IV infusion, PMs (n = 2)) 6.58 ± 2.59 h; under setting [5], 2.57 ± 0.41 h; under setting [6], 4.32 ± 0.27 h.

As to `COc1cc(CCO[C@@H]2CCCC[C@H]2N2CC[C@@H](O)C2)ccc1OC1OC(C(=O)O)C(O)C(O)C1O` (stereo partly drawn) [Compound 2 glucuronide], the “Cumulative Amount Excreted” value came to 120.01 ± 19.03 mg under setting [1], 11.36 ± 5.52 mg under setting [2], 121.76 ± 44.38 mg under setting [3] and 12.03 ± 0.51 mg under setting [4]. Also, where the note is “plasma metabolite”, the “mean AUC0-∞, times higher in EMs than in PMs” value is 10 times. Further, the “AUC0-∞” value was 20,711 ± 2708 ng · h/mL (IV infusion, EMs (n = 5)); 1933 ± 360.0 ng·h/mL (IV infusion, PMs (n = 2)); 21,182 ± 3137 ng · h/mL under setting [5]; 2025 ± 65.9 ng·h/mL under setting [6]. The molecule further had a Cmax (IV infusion, EMs (n = 5)) of 3489 ± 371.4 ng/mL; a Cmax (IV infusion, PMs (n = 2)) of 180.5 ± 48.8 ng/mL; a Cmax under setting [5] of 3824 ± 349.3 ng/mL; a Cmax under setting [6] of 230.5 ± 4.99 ng/mL. In addition, the Tmax runs as follows: (IV infusion, EMs (n = 5)) 1.44 ± 0.69 h; under setting [7], 1.4 h; (IV infusion, PMs (n = 2)) 2.17 ± 0.0 h; under setting [5], 2.4 h; under setting [6], 2.00 ± 0.0 h. Also, the t1/2 (IV infusion, EMs (n = 5)) came out at 3.29 ± 0.21 h; the t1/2 under setting [7] was determined as 3.3 h; the t1/2 (IV infusion, PMs (n = 2)) stood at 5.59 ± 0.73 h; the t1/2 under setting [5] is reported as 3.2 h; the t1/2 under setting [6] is recorded as 5.01 ± 0.49 h.

`COc1ccc(CCO[C@@H]2CCCC[C@H]2N2CC[C@@H](O)C2)cc1O` [Compound 3]: the “Cumulative Amount Excreted” value is listed as 0.04 ± 0.02 mg under setting [1], 0.16 ± 0.12 mg under setting [2], 0.05 ± 0.03 mg under setting [3] and 0.12 ± 0.05 mg under setting [4]. Further, for the setting “after vernakalant hydrochloride dosing”, the detectability in plasma entry is reported as “not detectable in plasma at most time points”. The Cmax (IV infusion, EMs (n = 5)) came out at 2.85 ± 3.94 ng/mL; the Cmax (IV infusion, PMs (n = 2)) stood at 3.72 ± 5.26 ng/mL; the peak concentration (Cmax) under setting [5] amounted to 1.41 ± 3.16 ng/mL; the Cmax under setting [6] is recorded as 9.08 ± 2.16 ng/mL. In addition, the Tmax is listed as 0.34 ± 0.12 h (IV infusion, EMs (n = 5)); 0.42^† h (IV infusion, PMs (n = 2)); 0.77^† h under setting [5]; 1.25 ± 1.06 h under setting [6].
